Test results from PMC12345137 (mBio, 2025).
Like-named read-outs stand apart in the source and are kept apart here. Positions of bridges follow the written chain, without caps; N, C: chain ends. Residues, ends and D or L forms follow the SMILES beside them.

Columns and labels:
S. aureus (SA) agr-III = conditions: fluorescence, cited from earlier work
S. epidermidis agr-I = S. epidermidis agr-I (Staphylococcus epidermidis, UniProt Q5HMY3); assay: cell-based; type: cell-based; conditions: fluorescent reporter strain; peptides tested at 1000, 50, 2.5, 0.125 nM or in dose-response
Method: (§1) Peptides were evaluated for the ability to interfere with agr-mediated quorum sensing in S. aureus (AH1677, AH430, AH1747, and AH1872 for agr-I–IV, respectively) ([40]) using reporter strains expressing yellow fluorescent protein (YFP) upon agr activation. Interference with agr-mediated quorum sensing in S. epidermidis (AH3408, AH3623, and AH3409 for agr-I–III, respectively) ([45]), and S. lugdunensis (AH4031 for agr-I) ([37]) was evaluated using reporter strains expressing superfolder green fluorescent protein (sGFP) upon agr activation. Overnight cultures of the reporter strains were grown in TSB medium containing chloramphenicol (CAM, 10 μg/mL for S. aureus) or erythromycin (ERM, 10 μg/mL of S. epidermidis and S. lugdunensis) and diluted 1:100 in fresh TSB medium containing the same antibiotic. Assays were performed in sterile black 96-well plates with a clear bottom. […] DMSO stock solutions of peptides (1 mM) were diluted in TSB media and added (15 μL) in technical triplicate to the 96-well plate, followed by diluted bacterial overnight cultures (135 μL). […] Wells containing 150 μL TSB medium were used to measure background fluorescence. The 96-well plates were incubated in a humidified incubator at 37°C shaking at 1,000 rpm for 22–24 h and fluorescence (for GFP: excitation 479 nm, emission 520 nm; for YFP: excitation 500 nm, emission 541 nm; automatic gain), and OD600 values were subsequently measured using a plate reader. Background fluorescence was subtracted from all wells and further normalized to the corresponding OD600 value of the respective wells. The average fluorescence of control wells was used as a relative measure for 100% activation of the agr-circuit, and bar graphs were generated using GraphPad Prism 10.4 software. All assays were performed in at least a biological duplicate.
Overnight cultures of the reporter strains were grown in TSB medium containing chloramphenicol (CAM, 10 μg/mL for S. aureus) or erythromycin (ERM, 10 μg/mL of S. epidermidis and S. lugdunensis) and diluted 1:100 in fresh TSB medium containing the same antibiotic. Assays were performed in sterile black 96-well plates with clear bottoms. Peptide solutions (15 μL) in 1:5 serial dilutions from DMSO stock solutions (1 mM) in TSB medium were added to the 96-well plate in technical duplicate followed by diluted bacterial overnight cultures (135 μL). […] Wells containing 150 μL TSB medium were used to measure background fluorescence. The 96-well plates were incubated in a humidified incubator at 37°C shaking at 1,000 rpm for 22–24 h and fluorescence (for GFP: excitation 479 nm, emission 520 nm; for YFP: excitation 500 nm, emission 541 nm; automatic gain), and OD600 values were subsequently measured using a plate reader. Background fluorescence was subtracted from all wells and further normalized to the corresponding OD600 value of the respective wells. The average fluorescence of control wells was used as a relative measure for 100% activation of the agr-circuit. Relative agr activity was plotted to obtain IC50 values by non-linear regression with variable slope using GraphPad Prism 10.4 software. All assays were performed in biological triplicate.

SA AgrC-II = SA AgrC-II (Staphylococcus aureus, UniProt O33587); assay: β-Lactamase assay, reporter strain RN10829 (P2-agrA:P3-blaZ) with pagrC-II; type: cell-based
From the text: (§2) The β-lactamase reporter strain RN10829 (P2-agrA:P3-blaZ) ([62]), with pagrC-I ([63]), pagrC-II, pagrC-III, or pagrC-IV ([11]), substituting the native agr locus with a chromosomal integration of P2-agrA and P3-blaZ and a plasmid from which a wild-type variant of the corresponding AgrC is expressed, was used to assess inhibition and activation of the AgrC receptor via β-lactamase activity in response to varying concentrations of the QS modulating peptides. Overnight cultures of the reporter strains in TSB medium were diluted 1:250 in fresh TSB medium and grown to OD600 = 0.35–0.40 (early exponential phase) at 37°C. Peptide solutions (10 μL) in 1:10 serial dilutions from DMSO stock solutions (1 mM) in TSB medium (final concentrations = 10 μM–10 pM) were added to each well of a clear 96-well plate as well as solutions (10 μL) of cognate AIP (final concentration = 100 nM) in TSB medium followed by 80 μL of bacterial cells. Control wells for 100% β-lactamase activity were wells replacing peptide solution with TSB media (10 μL), and control wells for 0% β-lactamase activity were wells replacing both peptide and cognate AIP solutions with TSB medium (20 μL). The 96-well plates were incubated at 37°C shaking at 200 rpm for 1 h and immediately frozen down at −80°C to minimize growth during nitrocefin treatment. Next, the 96-well plates were thawed, and OD600 values were determined using a plate reader followed by the addition of 50 μL of nitrocefin solution to the wells (final concentration = 33.3 μg/mL). β-Lactamase activity was monitored at OD486 every 20 s for 10 min at 37°C using a plate-reader. Linear nitrocefin conversion rates were plotted to obtain IC50 values by non-linear regression with variable slope using GraphPad Prism 10.4 software. Assays were performed at least as duplicate determinations in biological triplicate.

S. aureus (SA) agr-II = conditions: fluorescence, cited from earlier work
[1] = test system: S. epidermidis (SE) agr-II; conditions: fluorescence; ref (13); cited from earlier work
SA AgrC-I [2] = target: T1, SA AgrC-I (Staphylococcus aureus, UniProt O07911); assay: β-Lactamase assay, reporter strain RN10829 (P2-agrA:P3-blaZ) with pagrC-I; type: cell-based
From the text: as §2, with “Control wells for 100% β-lactamase activity were wells replacing peptide solution with TSB media (10 μL), and control wells for 0% β-lactamase activity were wells replacing both peptide and cognate AIP solutions with TSB medium (20 μL).” left out

SA AgrC-IV = SA AgrC-IV (Staphylococcus aureus, UniProt Q309Z2); assay: β-Lactamase assay, reporter strain RN10829 (P2-agrA:P3-blaZ) with pagrC-IV; type: cell-based; conditions: 100 nM cognate AIP; ± SEM; -b = no inhibition recorded at the highest AIP concentration tested; -a = only partial inhibition observed; this study (curves in Fig. S22)
From the text: as §2

S. aureus (SA) agr-I = conditions: fluorescence, cited from earlier work
SA AgrC-III = SA AgrC-III (Staphylococcus aureus, UniProt O33590); assay: β-Lactamase assay, reporter strain RN10829 (P2-agrA:P3-blaZ) with pagrC-III; type: cell-based
From the text: as §2

S. aureus (SA) agr-IV = conditions: fluorescence, cited from earlier work
[3] = test system: S. epidermidis (SE) agr-III; conditions: fluorescence; ref (13); cited from earlier work
SA AgrC-I [4] = target: T1, SA AgrC-I; conditions: 100 nM cognate AIP; ± SEM; -b = no inhibition recorded at the highest AIP concentration tested; determined previously; ref (1); read-out: IC50, SA AgrC-I, b-lactamase assay; cited from earlier work
S. aureus agr-IV = S. aureus agr-IV (Staphylococcus aureus, UniProt Q309Z2); assay: cell-based; type: cell-based; conditions: fluorescent reporter strain; peptides tested at 1000, 50, 2.5, 0.125 nM or in dose-response
Method: as §1, with “μL). Control wells for 100% agr activity were wells replacing the peptide solution with TSB medium (15 μL).” for “μL).”
(§3) Overnight cultures of the reporter strains were grown in TSB medium containing chloramphenicol (CAM, 10 μg/mL for S. aureus) or erythromycin (ERM, 10 μg/mL of S. epidermidis and S. lugdunensis) and diluted 1:100 in fresh TSB medium containing the same antibiotic. Assays were performed in sterile black 96-well plates with clear bottoms. Peptide solutions (15 μL) in 1:5 serial dilutions from DMSO stock solutions (1 mM) in TSB medium were added to the 96-well plate in technical duplicate followed by diluted bacterial overnight cultures (135 μL). Control wells for 100% agr activity were wells replacing the peptide solution with TSB medium (15 μL). Wells containing 150 μL TSB medium were used to measure background fluorescence. The 96-well plates were incubated in a humidified incubator at 37°C shaking at 1,000 rpm for 22–24 h and fluorescence (for GFP: excitation 479 nm, emission 520 nm; for YFP: excitation 500 nm, emission 541 nm; automatic gain), and OD600 values were subsequently measured using a plate reader. Background fluorescence was subtracted from all wells and further normalized to the corresponding OD600 value of the respective wells. The average fluorescence of control wells was used as a relative measure for 100% activation of the agr-circuit. Relative agr activity was plotted to obtain IC50 values by non-linear regression with variable slope using GraphPad Prism 10.4 software. All assays were performed in biological triplicate.

S. aureus agr-III = S. aureus agr-III (Staphylococcus aureus, UniProt O33590); assay: cell-based; conditions: fluorescent reporter strain; peptides tested at 1000, 50, 2.5, 0.125 nM or in dose-response
Method: as §1, with “μL). Control wells for 100% agr activity were wells replacing the peptide solution with TSB medium (15 μL).” for “μL).”
as §3

T1 sequence (O07911 entry or part of it): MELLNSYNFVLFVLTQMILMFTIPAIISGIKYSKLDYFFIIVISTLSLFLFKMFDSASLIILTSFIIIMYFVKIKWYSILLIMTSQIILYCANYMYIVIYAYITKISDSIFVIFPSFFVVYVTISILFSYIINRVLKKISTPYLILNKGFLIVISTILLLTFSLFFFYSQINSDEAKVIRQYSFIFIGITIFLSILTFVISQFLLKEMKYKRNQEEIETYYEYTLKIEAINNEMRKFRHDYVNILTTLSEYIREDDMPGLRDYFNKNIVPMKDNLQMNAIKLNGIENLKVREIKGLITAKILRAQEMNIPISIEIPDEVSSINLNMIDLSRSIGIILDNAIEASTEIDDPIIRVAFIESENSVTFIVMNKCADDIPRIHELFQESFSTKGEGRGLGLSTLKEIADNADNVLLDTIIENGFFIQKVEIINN
Sequence of S. epidermidis agr-I (Q5HMY3 entry or part of it): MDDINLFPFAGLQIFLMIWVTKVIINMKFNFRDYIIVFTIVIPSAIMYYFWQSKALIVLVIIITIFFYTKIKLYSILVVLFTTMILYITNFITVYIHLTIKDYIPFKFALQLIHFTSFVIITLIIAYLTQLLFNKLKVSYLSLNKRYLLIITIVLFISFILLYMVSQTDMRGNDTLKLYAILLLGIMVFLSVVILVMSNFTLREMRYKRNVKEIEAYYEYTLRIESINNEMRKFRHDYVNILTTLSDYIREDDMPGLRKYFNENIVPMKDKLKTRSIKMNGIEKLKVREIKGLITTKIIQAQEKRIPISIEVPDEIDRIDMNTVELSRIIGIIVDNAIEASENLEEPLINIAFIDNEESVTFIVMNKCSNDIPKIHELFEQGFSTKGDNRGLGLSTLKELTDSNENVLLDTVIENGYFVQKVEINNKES
Sequence of SA AgrC-II (O33587 entry or part of it): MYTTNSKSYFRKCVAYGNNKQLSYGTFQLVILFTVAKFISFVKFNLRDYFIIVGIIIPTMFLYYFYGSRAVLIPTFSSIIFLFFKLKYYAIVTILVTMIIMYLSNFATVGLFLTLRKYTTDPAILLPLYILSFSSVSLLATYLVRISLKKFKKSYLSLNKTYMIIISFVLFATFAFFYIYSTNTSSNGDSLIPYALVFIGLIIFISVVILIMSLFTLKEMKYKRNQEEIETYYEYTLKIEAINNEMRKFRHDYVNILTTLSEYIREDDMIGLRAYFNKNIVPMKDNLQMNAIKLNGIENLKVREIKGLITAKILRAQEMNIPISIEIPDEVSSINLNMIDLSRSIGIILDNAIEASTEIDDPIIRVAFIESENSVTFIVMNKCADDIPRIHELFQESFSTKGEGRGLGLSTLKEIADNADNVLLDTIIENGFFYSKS
Sequence of S. aureus agr-III (O33590 entry or part of it): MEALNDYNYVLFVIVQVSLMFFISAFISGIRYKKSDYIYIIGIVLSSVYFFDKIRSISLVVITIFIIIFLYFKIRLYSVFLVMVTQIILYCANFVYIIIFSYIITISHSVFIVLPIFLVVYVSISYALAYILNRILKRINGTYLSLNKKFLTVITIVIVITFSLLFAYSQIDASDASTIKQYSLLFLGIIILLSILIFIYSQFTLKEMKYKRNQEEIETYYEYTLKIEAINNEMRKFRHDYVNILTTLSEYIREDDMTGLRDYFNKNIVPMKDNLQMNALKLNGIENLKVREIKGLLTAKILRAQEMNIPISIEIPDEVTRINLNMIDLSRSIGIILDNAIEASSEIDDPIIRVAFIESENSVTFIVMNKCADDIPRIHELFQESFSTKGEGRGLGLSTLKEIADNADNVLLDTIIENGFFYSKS
Sequence of SA AgrC-III (O33590 entry or part of it): as above
Sequence of S. aureus agr-IV (Q309Z2 entry or part of it): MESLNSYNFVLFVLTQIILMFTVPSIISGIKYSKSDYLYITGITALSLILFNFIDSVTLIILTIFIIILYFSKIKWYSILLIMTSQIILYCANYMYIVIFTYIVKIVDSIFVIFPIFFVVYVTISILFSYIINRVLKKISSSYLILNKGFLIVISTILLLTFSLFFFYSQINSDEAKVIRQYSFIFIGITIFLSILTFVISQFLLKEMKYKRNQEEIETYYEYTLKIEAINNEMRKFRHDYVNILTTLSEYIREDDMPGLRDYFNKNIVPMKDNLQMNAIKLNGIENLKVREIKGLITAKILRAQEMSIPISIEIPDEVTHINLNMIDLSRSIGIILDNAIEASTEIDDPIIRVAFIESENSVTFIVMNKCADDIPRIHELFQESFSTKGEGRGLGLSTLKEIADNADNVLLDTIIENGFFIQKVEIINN
Sequence of SA AgrC-IV (Q309Z2 entry or part of it): as above

## CC(C)[C@H](NC(=O)[C@H](CC(N)=O)NC(=O)[C@H](Cc1ccc(O)cc1)NC(=O)[C@@H](N)CO)C(=O)N[C@H]1CSC(=O)[C@H](Cc2ccccc2)NC(=O)[C@H](Cc2ccc(O)cc2)NC(=O)CNC(=O)CNC1=O [compound 10, S. hominis AIP-I] (H-SYNVCGGYF; thioester 5-C; N-terminus assumed)
S. aureus (SA) agr-III; by supernatant, ref (12)
  inhibition by supernatant, SA agr-III: ~ 80%
S. aureus (SA) agr-III; ref (13)
  IC50: 5 nM
S. epidermidis agr-I
  QS interaction in words (inhibition / activation), S. epidermidis agr-I: activates
SA AgrC-II
  IC50: > 1000 nM
S. aureus (SA) agr-II; by supernatant, ref (12)
  inhibition by supernatant, SA agr-II: ~ 70%
S. aureus (SA) agr-II; ref (13)
  IC50: 31 nM
[1]
  IC50: 34 nM
SA AgrC-I [2]
  IC50: 224 ± 37 nM
SA AgrC-IV
  IC50, SA AgrC-IV, b-lactamase assay: -b
S. aureus (SA) agr-I; ref (12)
  IC50: 0.624 nM
S. aureus (SA) agr-I; ref (13)
  IC50: 13 nM
SA AgrC-III
  IC50: 338 ± 83 nM
S. aureus (SA) agr-IV; by supernatant, ref (12)
  inhibition by supernatant, SA agr-IV: no inhibition
S. aureus (SA) agr-IV; ref (13)
  IC50: 2910 nM
[3]
  IC50: 16 nM

## S. lugdunensis AIP-II (DMCNGYF; not fully specified; cyclic: thiolactone between Cys3 side-chain thiol and C-terminal Phe7 carboxyl; free N-terminus) [compound 9]
SA AgrC-I [4]
  IC50: > 1000 nM

## S. saprophyticus AIP-I (INPCFGYT; not fully specified; cyclic: thiolactone between Cys4 side-chain thiol and C-terminal Thr8 carboxyl; free N-terminus) [compound 19]
SA AgrC-I [4]
  IC50: 360 ± 30 nM

## S. simulans AIP-II P4A [compound 39]
S. aureus agr-IV
  QS interaction in words (inhibition / activation), S. aureus agr-IV: activator
S. aureus agr-III
  QS interaction in words (inhibition / activation), S. aureus agr-III: activator
